Test results reported in US11945793B1, “9-(2-hydroxypyridin-3-yl)-10[3-(dimethylamino)propyl]-3,4,6,7,9,10-hexahydroacridine-1,8(2H,5H)-dione as an antimicrobial compound” (KING FAISAL UNIVERSITY, priority 2023, dated 2024).

Columns and labels:
Format in all cases: cell-based
Conditions in all cases: after 10, 20, 40 and 60 minutes at all dilutions 1:100, 1:200, 1:400, 1:800
Candida albicans = assay: Antimicrobial (antifungal) screening by agar dilution, Candida albicans
Procedure: (§1) The antibacterial properties of the synthesized compound 9-(2-hydroxypyridin-3-yl)-10-[3-(dimethylamino)propyl]-3,4,6,7,9,10-hexahydroacridine-1,8(2H,5H)-dione were studied by the method of agar dilution. Test solutions of each compound was prepared in concentration of 1% using dimethylformamide as a solvent then they are diluted in physiological solution to obtain the final experimental dilutions 1:100, 1:200, 1:400, 1:800. The effect of these substances are compared with furacillin in a controllable study. The testing microbes used were gram positive bacteria Staphylococcus aureus, gram negative bacteria Pseudomonas aeruginosa and Escherichia coli and Candida albicans fungus. The experiments used for this survey were meat-pentonlu agar (EPA) for cultivation of bacteria and Saburo environment for the fungus. Each experiment used 1 mL of test solution on each plate […]. Two drops of emulsified with microbes feel were added. All experimental samples were taken from the agar after 10, 20, 40, 60 minutes in the environment on the basis of Patrk planted. The bacteria were cultivated at a temperature of 37° C. for 1 day and the mushroom was kept in a thermostat for […] at a temperature of 28° C. Then results were checked.

Pseudomonas aeruginosa = assay: Antimicrobial screening by agar dilution, Ps. aeruginosa
Procedure: as §1

Staphylococcus aureus = assay: Antimicrobial screening by agar dilution, St. aureus
Procedure: as §1

Escherichia coli = assay: Antimicrobial screening by agar dilution, E. coli
Procedure: as §1

Measured: inhibition activity (in words)

CN(C)CCCN1C2=C(C(=O)CCC2)C(c2cccnc2O)C2=C1CCCC2=O [9-(2-hydroxypyridin-3-yl)-10-[3-(dimethylamino)propyl]-3,4,6,7,9,10-hexahydroacridine-1,8(2H,5H)-dione]
highest inhibition activity: all assays above
